These molecules were tested against T1, PLK4 (Homo sapiens, UniProt O00444) (assay: PLK4 NanoBRET target engagement assay). Conditions: HEK293 T cells transfected with PLK4 NanoLuc fusion vector; K-5 tracer; 2 hrs incubation.
T1 construct: expressed in transfected cells; host or cells: HEK293 T cells (ATCC CRL-3216)
T1 sequence (O00444 1-970): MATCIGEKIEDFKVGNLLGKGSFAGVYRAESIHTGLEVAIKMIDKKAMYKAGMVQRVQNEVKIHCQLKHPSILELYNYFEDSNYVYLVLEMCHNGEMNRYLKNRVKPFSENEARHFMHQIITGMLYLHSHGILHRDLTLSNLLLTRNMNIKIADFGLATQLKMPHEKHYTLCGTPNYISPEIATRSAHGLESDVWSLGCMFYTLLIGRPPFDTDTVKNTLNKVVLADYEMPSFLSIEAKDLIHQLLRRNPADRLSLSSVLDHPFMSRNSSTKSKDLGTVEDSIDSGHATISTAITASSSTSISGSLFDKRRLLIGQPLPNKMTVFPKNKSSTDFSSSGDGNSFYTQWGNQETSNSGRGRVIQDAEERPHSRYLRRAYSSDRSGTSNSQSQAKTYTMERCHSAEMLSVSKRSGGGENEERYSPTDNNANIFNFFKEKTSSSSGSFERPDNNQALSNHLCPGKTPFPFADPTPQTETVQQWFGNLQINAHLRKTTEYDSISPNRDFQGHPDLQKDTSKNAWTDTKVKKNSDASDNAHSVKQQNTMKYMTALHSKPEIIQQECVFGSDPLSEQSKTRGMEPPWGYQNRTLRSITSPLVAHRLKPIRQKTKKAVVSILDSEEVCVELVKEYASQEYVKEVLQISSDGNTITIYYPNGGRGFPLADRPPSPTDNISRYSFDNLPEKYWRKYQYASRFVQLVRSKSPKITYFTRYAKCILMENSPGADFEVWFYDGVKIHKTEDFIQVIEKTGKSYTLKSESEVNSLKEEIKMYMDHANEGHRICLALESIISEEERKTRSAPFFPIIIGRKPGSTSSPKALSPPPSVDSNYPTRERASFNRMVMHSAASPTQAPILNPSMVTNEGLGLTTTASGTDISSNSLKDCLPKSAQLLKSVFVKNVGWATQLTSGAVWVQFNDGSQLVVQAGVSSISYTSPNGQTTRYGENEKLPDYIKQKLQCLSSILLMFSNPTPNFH
Assay type: binding
Summary of the method: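 HEK293T cells transiently expressing PLK4-NanoLuc, plated at 17000 cells/well with K-5 tracer and compound, incubated 2 h at 37 °C/5% CO2. After substrate/inhibitor mix, 610/450 nm emission ratio ×1000 gave mBRET; IC50 from 4-parameter fit.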

Question: With `Cc1cc(Nc2nc(N(C)c3c(F)cc(S(C)(=O)=O)cc3F)nc(-c3cn(CCO)nc3C)c2C2CC2)n[nH]1` [Compound 202] as the molecule, how does the IC50 read?
Answer: 6 nM

Question: For `Cc1cc(Nc2nc(N(C)c3c(F)cc(S(C)(=O)=O)cc3F)nc(-c3cnn4c3OCCC4)c2C2CC2)n[nH]1` [Compound 203], which IC50 is on record?
Answer: 6 nM

Question: With `Cc1cc(Nc2nc(N(C)c3c(F)cc(S(C)(=O)=O)cc3F)nc(-c3cn(C)c(C#N)n3)c2C2CC2)n[nH]1` [Compound 204] as the molecule, how does the IC50 read?
Answer: 8 nM

Question: For `Cc1cc(Nc2nc(N(C)c3c(F)cc(S(C)(=O)=O)cc3F)nc(-c3ccn(C)c(=O)c3)c2C2CC2)n[nH]1` [Compound 205], which IC50 is on record?
Answer: 22 nM

Question: Which IC50 does the source give for `Cc1cc(Nc2nc(N(C)c3c(F)cc(S(C)(=O)=O)cc3F)nc(-c3cnn(CC#N)c3)c2C2CC2)n[nH]1` [Compound 206] here?
Answer: 4 nM

Question: `Cc1cc(Nc2nc(N(C)c3cc(F)c(S(C)(=O)=O)cc3F)nc(-c3cn(C4CC4)cn3)c2C2CC2)n[nH]1` [Compound 207] was tested. Which IC50 did it give?
Answer: 6 nM

Question: Which IC50 does the source give for `Cc1cc(Nc2nc(N(C)c3ccc(S(C)(=O)=O)cc3F)nc(-c3cn(C4CC4)cn3)c2C2CC2)n[nH]1` [Compound 208] here?
Answer: 9 nM

Question: For `Cc1cc(Nc2nc(N(C)c3c(F)cc(S(C)(=O)=O)cc3F)nc(-c3ccn(C4CC4)n3)c2C2CC2)n[nH]1` [Compound 209], which IC50 is on record?
Answer: 5 nM

Question: How did the IC50 turn out when `Cc1cc(Nc2nc(N(C)c3cc(F)c(S(C)(=O)=O)cc3F)nc(-c3cn4c(n3)CCOC4)c2C2CC2)n[nH]1` [Compound 210] was run?
Answer: 8 nM

Question: For `Cc1cc(Nc2nc(N(C)c3c(F)cc(S(C)(=O)=O)cc3F)nc(-c3cn4c(n3)CNCC4)c2C2CC2)n[nH]1` [Compound 211], which IC50 is on record?
Answer: 40 nM

Question: `CC(=O)N1CCn2cc(-c3nc(N(C)c4c(F)cc(S(C)(=O)=O)cc4F)nc(Nc4cc(C)[nH]n4)c3C3CC3)nc2C1` [Compound 212] was tested. Which IC50 did it give?
Answer: 53 nM

Question: With `Cc1cc(Nc2nc(N(C)c3c(F)cc(S(C)(=O)=O)cc3F)nc(-c3cnn(CC(C)(C)O)c3)c2C2CC2)n[nH]1` [Compound 213] as the molecule, how does the IC50 read?
Answer: 6 nM

Question: Which IC50 does the source give for `Cc1cc(Nc2nc(N(C)c3c(F)cc(S(C)(=O)=O)cc3F)nc(-c3ncn(C)n3)c2C2CC2)n[nH]1` [Compound 215] here?
Answer: 69 nM

Question: For `Cc1cc(Nc2nc(N(C)c3c(F)cc(S(C)(=O)=O)cc3F)nc(-c3ncnn3C)c2C2CC2)n[nH]1` [Compound 216], which IC50 is on record?
Answer: 190 nM

Question: `Cc1cc(Nc2nc(N(C)c3c(F)cc(S(C)(=O)=O)cc3F)nc(-c3cn(C)c(C(C)O)n3)c2C2CC2)n[nH]1` (centres unmarked) [Compound 217] was tested. Which IC50 did it give?
Answer: 19 nM

Question: How did the IC50 turn out when `Cc1cc(Nc2nc(N(C)c3c(F)cc(S(C)(=O)=O)cc3F)nc(-c3nn(C)cc3CO)c2C2CC2)n[nH]1` [Compound 218] was run?
Answer: 53 nM

Question: With `COCCn1cc(-c2nc(N(C)c3ccc(S(C)(=O)=O)cc3F)nc(Nc3cc(C)[nH]n3)c2C2CC2)c(C)n1` [Compound 219] as the molecule, how does the IC50 read?
Answer: 18 nM

Question: `COCCn1ncc(-c2nc(N(C)c3ccc(S(C)(=O)=O)cc3F)nc(Nc3cc(C)[nH]n3)c2C2CC2)c1C` [Compound 220] was tested. Which IC50 did it give?
Answer: 38 nM

Question: With `COCCn1cc(-c2nc(N(C)c3cc(F)c(S(C)(=O)=O)cc3F)nc(Nc3cc(C)[nH]n3)c2C2CC2)c(C)n1` [Compound 221] as the molecule, how does the IC50 read?
Answer: 12 nM

Question: Which IC50 does the source give for `COCCn1ncc(-c2nc(N(C)c3cc(F)c(S(C)(=O)=O)cc3F)nc(Nc3cc(C)[nH]n3)c2C2CC2)c1C` [Compound 222] here?
Answer: 15 nM

Question: For `Cc1cc(Nc2nc(N(C)c3cc(F)c(S(C)(=O)=O)cc3F)nc(-c3cnn([C@H]4CC[C@H](O)CC4)c3)c2C2CC2)n[nH]1` [Compound 223], which IC50 is on record?
Answer: 9 nM

Question: Which IC50 does the source give for `COCCn1cc(-c2nc(N(C)c3cc(F)c(S(C)(=O)=O)cc3F)nc(Nc3cc(C)[nH]n3)c2C2CC2)nc1C` [Compound 224] here?
Answer: 13 nM

Question: `Cc1cc(Nc2nc(N(C)c3c(F)cc(S(C)(=O)=O)cc3F)nc(-c3cn(CCO)cn3)c2C2CC2)n[nH]1` [Compound 225] was tested. Which IC50 did it give?
Answer: 89 nM

Question: `Cc1cc(Nc2nc(N(C)c3c(F)cc(S(C)(=O)=O)cc3F)nc(-c3cn(CCS(C)(=O)=O)nc3C)c2C2CC2)n[nH]1` [Compound 226] was tested. Which IC50 did it give?
Answer: 6 nM

Question: Which IC50 does the source give for `Cc1cc(Nc2nc(N(C)c3c(F)cc(S(C)(=O)=O)cc3F)nc(-c3cnn(CCS(C)(=O)=O)c3C)c2C2CC2)n[nH]1` [Compound 227] here?
Answer: 5 nM

Question: With `CN(c1nc(Nc2cc(C3CC3)[nH]n2)c(C2CC2)c(-c2cn(C)cn2)n1)c1c(F)cc(S(C)(=O)=O)cc1F` [Compound 228, 5-cyclopropyl-N^4-(5-cyclopropyl-1H-pyrazol-3-yl)-N^2-(2,6-difluoro-4-(methylsulfonyl)phenyl)-N^2-methyl-6-(1-methyl-1H-imidazol-4-yl)pyrimidine-2,4-diamine] as the molecule, how does the IC50 read?
Answer: 3 nM

Question: For `Cc1cc(Nc2nc(N(C)c3c(F)cc(S(C)(=O)=O)cc3F)nc(-c3cn(CCF)c(C)n3)c2C2CC2)n[nH]1` [Compound 229], which IC50 is on record?
Answer: 3 nM

Question: Which IC50 does the source give for `Cc1cc(Nc2nc(N(C)c3cc(F)c(S(C)(=O)=O)cc3F)nc(-c3ccn(CCO)n3)c2C2CC2)n[nH]1` [Compound 230] here?
Answer: 26 nM

Question: For `Cc1cc(Nc2nc(N(C)c3c(F)cc(S(C)(=O)=O)cc3F)nc(-c3cnn(C)c3C(N)=O)c2C2CC2)n[nH]1` [Compound 231], which IC50 is on record?
Answer: 4 nM

Question: For `Cc1cc(Nc2nc(N(C)c3c(F)cc(S(C)(=O)=O)cc3F)nc(N3CC(n4cccn4)C3)c2C2CC2)n[nH]1` [Compound 233], which IC50 is on record?
Answer: 45 nM

Question: How did the IC50 turn out when `Cc1cc(Nc2nc(N(C)c3c(F)cc(S(C)(=O)=O)cc3F)nc(-c3cn4c(n3)C(O)CC4)c2C2CC2)n[nH]1` (centres unmarked) [Compound 234] was run?
Answer: 49 nM

Question: `Cc1cc(Nc2nc(N(C)c3c(F)cc(S(C)(=O)=O)cc3F)nc(-n3ccccc3=O)c2C2CC2)n[nH]1` [Compound 235] was tested. Which IC50 did it give?
Answer: 1100 nM

Question: `Cc1cc(Nc2nc(N(C)c3c(F)cc(S(C)(=O)=O)cc3F)nc(N3CC(n4ccnc4)C3)c2C2CC2)n[nH]1` [Compound 236] was tested. Which IC50 did it give?
Answer: 87 nM

Question: How did the IC50 turn out when `[2H]C([2H])([2H])OCc1nc(-c2nc(N(C)c3c(F)cc(S(C)(=O)=O)cc3F)nc(Nc3cc(C)[nH]n3)c2C2CC2)cn1C` [Compound 237] was run?
Answer: 5 nM

Question: How did the IC50 turn out when `Cc1cc(Nc2nc(N(CCO)c3c(F)cc(S(C)(=O)=O)cc3F)nc(-c3cn(C)cn3)c2C2CC2)n[nH]1` [Compound 238] was run?
Answer: 34 nM

Question: With `Cc1cc(Nc2nc(N(C)c3c(F)cc(S(C)(=O)=O)cc3F)nc(-c3cc4n(n3)CCOC4)c2C2CC2)n[nH]1` [Compound 240] as the molecule, how does the IC50 read?
Answer: 4 nM

Question: How did the IC50 turn out when `Cc1cc(Nc2nc(N(C)c3c(F)cc(S(C)(=O)=O)cc3F)nc(-c3cn(C4CC4)c(C)n3)c2C2CC2)n[nH]1` [Compound 241] was run?
Answer: 4 nM

Question: With `Cc1cc(Nc2nc(N(C)c3cc(F)c(S(C)(=O)=O)cc3F)nc(-c3cn(C4CC4)c(C)n3)c2C2CC2)n[nH]1` [Compound 242] as the molecule, how does the IC50 read?
Answer: 5 nM

Question: With `Cc1cc(Nc2nc(N(C)c3cc(F)c(S(C)(=O)=O)cc3F)nc(-c3cc4n(n3)CCOC4)c2C2CC2)n[nH]1` [Compound 243] as the molecule, how does the IC50 read?
Answer: 16 nM

Question: Which IC50 does the source give for `COC(C)c1nc(-c2nc(N(C)c3c(F)cc(S(C)(=O)=O)cc3F)nc(Nc3cc(C)[nH]n3)c2C2CC2)cn1C` (centres unmarked) [Compound 244] here?
Answer: 10 nM

Question: For `Cc1cc(Nc2nc(N(C)c3c(F)cc(S(C)(=O)=O)cc3F)nc(-c3cc4n(C)c(=O)ccn4n3)c2C2CC2)n[nH]1` [Compound 245], which IC50 is on record?
Answer: 5 nM

Question: For `CCN(c1nc(Nc2cc(C)[nH]n2)c(C2CC2)c(-c2cn(C)cn2)n1)c1cc(F)c(S(C)(=O)=O)cc1F` [Compound 246], which IC50 is on record?
Answer: 20 nM

Question: For `Cc1cc(Nc2nc(N(C)c3cc(F)c(S(C)(=O)=O)cc3F)nc(-c3cnn(C)c3C(N)=O)c2C2CC2)n[nH]1` [Compound 248], which IC50 is on record?
Answer: 33 nM

Question: `COCc1c(-c2nc(N(C)c3c(F)cc(S(C)(=O)=O)cc3F)nc(Nc3cc(C)[nH]n3)c2C2CC2)cnn1C` [Compound 249] was tested. Which IC50 did it give?
Answer: 2 nM

Source: patent US20250177396A1, “POLO-LIKE KINASE 4 (PLK4) INHIBITORS, PHARMACEUTICAL COMPOSITIONS, METHODS OF PREPARATION AND USES THEREOF” (Repare Therapeutics Inc., priority 2022, published 2025)
